Data on two molecules can be found in patent US12031137B2, “Compositions comprising SASP modulators and senescence attenuators and uses thereof for modulating cellular senescence” (RSEM, LIMITED PARTNERSHIP, priority 2016, dated 2024).

The subject of data set [1] is mouse model of oxygen-induced retinopathy (OIR). Nature of the data set: TUNEL staining of OIR retinas. The settings on record: P14 OIR, intravitreal, vs vehicle-treated retinas. In kind it is in vivo. An excerpt:
(§1) O2-induced retinopathy. Mouse pups from different strains (C57Bl/6 WT, LyzM-Cre, LysM-Cre/IRE1^fl/fl, LysM-Cre/IRE1^+/+, IRE1^fl/fl and LysM-Cre/ROSA26EYFP^fl/fl), and their fostering mothers (CD1, Charles River) were exposed to 75% 02 from postnatal day 7 (P7) to day 12 and returned to room air. This model serves as a proxy to human ocular neovascular diseases such as ROP and diabetic retinopathy characterized by a late phase of destructive pathological angiogenesis (72, 73). Upon return to room air, hypoxia-driven neovascularization (NV) develops from P14 onwards (27). We enucleated eyes at different time points and dissected the retinas for mRNA, protein assays or flatmounting.
(§2) Intravitreal injections. P2, P10 or P12 C57BL/6 pups were anesthetized with 3.0% isoflurane and injected in the vitreous chamber with 0.5 μL of lentivirus (see “Lentivirus production”), recombinant SEMA3A (100 ng/μL), metformin (10 μg/μL) or Aflibercept (10 μg/uL) using a 10-μL Hamilton syringe fitted with a […] glass capillary tip. Approximately 254±11.0 ng/μL of lentivirus Sh_GFP and 323.3±15.3 ng/μL containing Sh_Sema3a, Lv.Cre (15.0 ng/mL), Lv.GFP (15.0 ng/mL) was injected. Virus titers were assessed with the p24 ELISA kit (ZeptoMetrix). The titers of the lentiviruses used were (in ng p24) LV.Sh_RNA IRE1α (8.52 ng/mL), and LV.Sh_RNA.GFP (8.47 ng/mL).

Data set [2] shares this test system. Nature of the data set: Avascular area and pre-retinal neovascularization in OIR flatmount retinas. It counts as in vivo.
Data set [3] is described as follows: Mouse weight gain on systemic administration of metformin. It counts as in vivo.
Data set [4] has as its system mouse model of oxygen-induced retinopathy (OIR). Nature of the data set: SA-β-gal staining of retinas in oxygen-induced retinopathy (OIR) after intravitreal injection. In kind it is in vivo. The following applies: single intravitreal injection at P12, vs vehicle.
Excerpt: as §1
(§3) Senescence-associated β-galactosidase (SA-β-gal) assay. Senescence-associated β-galactosidase assays were carried out as described previously (57, 75)
Quantification of SA-β-gal in vivo. Senescence-associated β-galactosidase staining in flatmount retinas or sagittal eye sections were analyzed using Image J software as described in FIG. 14.
as §2

For data set [5] the test system is unchanged. Nature of the data set: Immunoblot and RT-qPCR of OIR retinas after intravitreal injection. In kind it is in vivo.
Excerpt: as §1
(§4) Semi-quantitative and Real-time PCR analysis. We isolated RNA using the GenElute™ Mammalian Total RNA Miniprep Kit (Sigma) and performed a digestion with DNase I to prevent amplification of genomic DNA. We reversed transcribed the RNA using M-MLV reverse transcriptase and analyzed gene expression using SybrGreen™ in an ABI Biosystems Real-Time PCR machine. β-actin was used as a reference gene. […] We investigated the splicing of XBP-1 by incubating the XBP-1 semi-quantitative PCR product with 0.4 U/μL of PstI enzyme for 5 hrs at 37° C. followed by separation on 2.5% agarose gel.
as §2
(§5) Western blotting. We enucleated eyes at varying time points and rapidly dissected and homogenized retinas for assessment of retinal protein levels. Protein concentration from retinal homogenate and cell lysates were assessed by BCA assay (Sigma), and then 30 μg of protein analyzed for each condition by standard SDS-PAGE technique.
For orientation: Immunoblotting shows a protein as a band on a membrane.

The test system of data set [6] is retina. Nature of the data set: Intravitreal injection of recombinant SEMA3A in mouse pups, senescence markers. In kind it is in vivo. The following applies: retina harvested at P5. An excerpt: FIG. 3A: Western blot analysis of SEMA3A protein expression level during OIR compared to normoxic controls at P10, P14, P17 and P21. β-actin is used as a loading control. FIG. 3B: Immunoblot analysis of SEMA3A protein levels during Ras-induced senescence in Mouse Embryonic Fibroblasts (MEFs). Cell lysates from MEFs retrovirally transduced with H-RasV12 oncogene or control empty vector harvested 14 days post-selection. FIG. 3C: SEMA3A transcript levels in human normal diploid fibroblasts (IMR90) retrovirally transduced with empty vector, MEK1 alone or MEK and human papillomavirus oncoproteins E6 and E7. […] FIG. 3I: HRMEC, retinal neurons (661W) and J774 (macrophages-like cells) stimulated with recombinant SEMA3A (100 ng/ml) or vehicle (CT) for 7 days, stained for SA-β-gal and quantification in FIG. 3J. […] Senescent cells were stained with SA-β-gal (right) and the level of secreted SEMA3A (S3A) protein in CM was evaluated by immunoblot (left). […] Senescence was evaluated after 7 days of treatment. FIG. 3M: Quantification of percentage of SA-β-gal positive cells treated as in (J). […]
Intravitreal injections. […] Virus titers were assessed with the p24 ELISA kit (ZeptoMetrix). […]
Western blotting. […] Protein concentration from retinal homogenate and cell lysates were assessed by BCA assay (Sigma), and then 30 μg of protein analyzed for each condition by standard SDS-PAGE technique.

The test system of data set [7] is J774 macrophage/monocyte cells. Nature of the data set: SEMA3A exposure of J774 macrophage/monocyte cells (SA-β-gal, immunoblot, RT-qPCR, γH2AX). In kind it is cell-based, mouse. As for the experimental part: as §4
For Protein localization, flatmounted retinas were incubated with different antibodies as indicated. For in vitro IF, cultured cells were plated on 0.1% gelatin-coated coverslips and serum-starved overnight and stimulated for 7 days with SEMA3A (100 ng/ml). Cells were washed briefly with cold PBS and fixed for 20 minutes in PBS containing 3.5% paraformaldehyde. Cells were rinsed with PBS and permeabilized with 0.3% Triton in PBS for 5 minutes. Fixed cells were blocked with 1% BSA and then incubated for 1 hour with primary antibodies in 0.1% BSA in PBS. Bound primary antibodies were visualized after 1 hour of incubation using Alexa Fluor secondary antibody. Coverslips were mounted using Fluoromount (Sigma-Aldrich) and analyzed by confocal microscope (Olympus confocal FV1000). Samples were viewed with a ×63/1.4 NA oil or ×30 objective. Images were assembled using Photoshop CS4 (Adobe Systems). For all antibodies used for immunohistochemistry, see Table 8.
as §3
(§6) Preparation of conditioned media (CM). Human retinal microvascular endothelial cells (HRMECs), retinal neuron 661W photoreceptor cells and Mouse macrophages (J774A.1 cell line) were incubated for 7 days with recombinant SEMA3A ([…]), H2O2 (150 μM for 2 h) 48 h after transfection or not as indicated in each experiment. Supernatants were centrifuged and filtered and then frozen for subsequent use. For Western Blot on CM was concentrated using ultra centrifugal amicon filter unit from Millipore.
as §5

Data set [8] has as its system Human retinal microvascular endothelial cells (HRMECs). Nature of the data set: SEMA3A exposure of HRMECs (cell cycle FACS, ECIS, SA-β-gal). In kind it is cell-based. As for the experimental part:
Flow Cytometry Analysis. Human retinal microvascular endothelial cells (HRMEC) cell cycle analysis (P1 biolegend) were performed according to the manufacturer's instructions and as previously reported (43). Briefly, HRMEC (1×10^6) were seeded in 6-well plates and incubated for 7 days with SEMA3A, 100 and 500 ng/ml. The samples were analyzed by flow cytometry. FACS was performed on a LSRII (BD Biosciences) device and data were analysed using FlowJo software (version 7.6.5).
Electric Cell-substrate Impedance Sensing (ECIS) Proliferation assay. Real-time analysis of trans-endothelial electric resistance was performed by plating 5000 HRMECs/ml were seeded onto 8W10E+ standard 8-well arrays (Applied BioPhysics, NY). Cells were allowed to grow leading to a capacitance of less than 10 nF. Cells were starved for 5 Hours with endothelial basal media (EBM-2, Lonza) and then treated with 100 ng/ml SEMA3A or vehicle (EBM-2) for 120 h and impedance was measured using an ECIS Zθ impedance instrument (Applied BioPhysics, NY). Measurements were taken for 120 h post treatment.
as §3, §6

In data set [9] the test system is retinal neurons (661W). Nature of the data set: SEMA3A exposure of 661W retinal neuron cell line (SA-β-gal). The following applies: 100 ng/ml, 7 days. In kind it is cell-based. As for the experimental part:
as §3
Preparation of conditioned media (CM). Human retinal microvascular endothelial cells (HRMECs), retinal neuron 661W photoreceptor cells and Mouse macrophages ([…]), H2O2 (150 μM for 2 h) 48 h after transfection or not as indicated in each experiment. Supernatants were centrifuged and filtered and then frozen for subsequent use. For Western Blot on CM was concentrated using ultra centrifugal amicon filter unit from Millipore.

Setting [10] is: intravitreal injection at P12, P14 OIR retinas.
Setting [11] is: HRMECs, 7 days, 100 and 500 ng/ml, FACS.

For the molecule `CN(C)C(=N)NC(=N)N` [metformin, N,N-Dimethylimidodicarbonimidic diamide], in [1], the “apoptosis in cells of the GCL (TUNEL)” value is recorded as “without aggravating apoptosis” and the “number of apoptotic cells in the INL layer (TUNEL)” value is given as “lowered”. The “benefits on pathological retinal angiogenesis” value in [2] (administered via systemic paths) was “did not show any benefits”. In [2] (intravitreal injection at P12, assessed at P17 OIR), the “enhancement of vascular regeneration” value is “more than 2 fold”. For the same molecule, in data set [2] (intravitreal injection at P12, vs vehicle), the “pathological neovascularization at P17 OIR” value is recorded as “by half”. Also, the mouse weight gain entry in data set [3] is given as “interfered with mouse weight gain”. Besides, in data set [4], the “SA-β-gal staining at P14 OIR” value was “significant decrease” and the “SA-β-gal staining at P17 OIR (cellular senescence)” value was “significant decrease”. Moreover, in data set [5] (setting [10]), the “Components of the VEGF signaling pathway (Vegf-a, Vegf-c, Vegfr-1, Vegfr-2 RT-qPCR)” value is “not affected”; the “IL6, Cdkn1a, Cdkn2a and Sema3A by RT-qPCR” value is “significant decrease”. Further, the “NF-κB and IRE1α activation in retinas (immunoblot)” value in data set [5] (single intravitreal injection at P12, OIR P14 and P17) is reported as “attenuated”.

B1: SEMA3A: Recombinant human Semaphorin 3A (from murine myeloma cell line, NS0) (R&D Systems) (protein)
chain: YQNGKNNVPRLKLSYKEMLESNNVITFNGLANSSSYHTFLLDEERSRLYVGAKDHIFSFDLVNIKDFQKIVWPVSYTRRDECKWAGKDILKECANFIKVLKAYNQTHLYACGTGAFHPICTYIEIGHHPEDNIFKLENSHFENGRGKSPYDPKLLTASLLIDGELYSGTAADFMGRDFAIFRTLGHHHPIRTEQHDSRWLNDPKFISAHLISESDNPEDDKVYFFFRENAIDGEHSGKATHARIGQICKNDFGGHRSLVNKWTTFLKARLICSVPGPNGIDTHFDELQDVFLMNFKDPKNPVVYGVFTTSSNIFKGSAVCMYSMSDVRRVFLGPYAHRDGPNYQWVPYQGRVPYPRPGTCPSKTFGGFDSTKDLPDDVITFARSHPAMYNPVFPMNNRPIVIKTDVNYQFTQIVVDRVDAEDGQYDVMFIGTDVGTVLKVVSIPKETWYDLEEVLLEEMTVFREPTAISAMELSTKQQQLYIGSTAGVAQLPLHRCDIYGKACAECCLARDPYCAWDGSACSRYFPTAKRRTRRQDIRNGDPLTHCSDLHHDNHHGHSPEERIIYGVENSSTFLECSPKSQRALVYWQFQRRNEERKEEIRVDDHIIRTDQGLLLRSLQQKDSGNYLCHAVEHGFIQTLLKVTLEVIDTEHLEELLHKDDDGDGSKTKEMSNSMTPSQKVWYRDFMQLINHPNLNTMDEFCEQVWKRDRKQRRQRPGHTPGNSNKWKHLQENKKGRNRRTHEFERAPRSV
modifications: left off: a dimerising Fc or GST
In the case of B1, in data set [6], the “SA-β-gal staining of retina sagittal cryosections” value is recorded as “marked augmentation”; the “p53, p16INK4a and IRE1α in retina (immunoblot)” value is listed as “marked increase”. The “senescence (SA-β-gal) in macrophage-like J774 cells” value in data set [7] (100 ng/ml, 7 days) was “induces senescence”. Further, in data set [7] (J774, 100 ng/mL, 7 days), the “expression of Pai1, Il6, Il1β, TGF-β and Tp53 (RT-qPCR)” value was “drove expression”; the “senescence-associated DNA-damage foci expressing γH2AX” value is “promoted”. In addition, the “IRE1α activation (p-IRE1α S724 immunoblot)” value in [7] (J774, sustained exposure, 100 ng/mL, 3 or 7 days) was “activated”. In data set [8] (100 ng/ml, 7 days), the “senescence (SA-β-gal) in HRMECs” value is given as “induces senescence”. In addition, the “normal endothelial cell growth (ECIS)” value in [8] (HRMECs, 100 ng/ml) is listed as “stunted”. For the same molecule, in [8] (setting [11]), the S phase entry is listed as “significantly reducing” and the “cell cycle arrest in G0/G1” value is “increased”. Moreover, the “senescence (SA-β-gal) in 661W retinal neuron cell line” value in data set [9] is listed as “induces senescence”.
